Source: paper PMC10304174, “Development of Zeise’s Salt Derivatives Bearing Substituted Acetylsalicylic Acid Substructures as Cytotoxic COX Inhibitors” (Pharmaceutics, 2023)

Tests used:
HT-29 cells [1] = tested on: HT-29 cells; set-up: method as in PMID 29848978; conditions: COX-1/2-positive HT-29 colon carcinoma cells; cited from earlier work
[2] = Complex stability by capillary electrophoresis (decrease of initial complex over time); assay type: physicochemical; conditions: MeOH/water (50/50, v/v), 1 mM, 37 °C, CE
Method: The analysis was performed as previously described. A 50 mM sodium tetraborate solution (pH = 9.3, adjusted with 1 M NaOH), served as background electrolyte (BGE). Washing of novel capillaries consecutively with 1 M NaOH (45 min), water (45 min), and BGE (45 min) was performed. The hydrodynamic injection mode was utilized to introduce the samples into the capillary (50 mbar for 2 s). The capillary was kept at 25 °C, and the autosampler was thermostatted at 37 °C with an external water bath. For separation, the voltage was set to 20 kV, and the detection was carried out at the wavelength of 230 nm. Before each measurement, flushing of the capillary with 0.1 M NaOH (3 min), water (3 min), and BGE (5 min) took place. The samples were dissolved in methanol (MeOH) and further diluted in equal parts by volume with water to give a final concentration of 1 mM. Triple determinations were performed, and the half-lives (τ½) are presented as mean ± SD of ≥3 independent experiments. Samples, washing solutions, and buffers were filtered through a membrane with 0.22 µm porosity and degassed by ultrasonication before use. To simplify the reaction dynamics from a possible second-order to pseudo-first-order, one of two reactants must be present in great excess (>10 to 25-fold). If this condition is fulfilled, logarithmic plotting of the gradual decrease in the other reactant’s concentration (or increase in the concentration of a product, respectively) against the time yields a straight line, and half-lives can be calculated.
An already-established method was used to study the stability of the X-ASA-Prop-PtCl3 and X-ASA-But-PtCl3 complexes. The degradation products were separated by capillary electrophoresis using a fused-silica capillary ([…] × 75 µm, effective length: 56 cm, capillary temperature: 25 °C) and a 50 mM tetraborate buffer (pH = 9.3) as BGE. For separation, the voltage was set to 20 kV and the compounds were detected at 230 nm. Benzoic acid was used as an internal standard. Exemplary electropherograms of each complex can be found in the Supplementary Material (Figures S1–S24).
The complexes (1 mM) were dissolved in MeOH or MeOH/water (50/50, v/v) and stored at 37 °C. The decrease in the initial amount of complex was monitored time-dependently by CE, and the half-life (τ½) was calculated (Table 2).

MCF-7 cells [3] = tested on: MCF-7 cells; set-up: method as in PMID 29848978; conditions: COX-negative MCF-7 breast cancer cells; cited from earlier work
COX-1 [4] = target: T1, COX-1 (Ovis aries, UniProt P05979); assay: COX Inhibitor Screening Assay (EIA) on isolated COX-1 isoenzyme; assay type: biochemical, ovine; conditions: for Inhibition of COX-1: incubation 10 min
T1 construct: purchased Cayman Chemicals
T1 sequence (P05979 25-600): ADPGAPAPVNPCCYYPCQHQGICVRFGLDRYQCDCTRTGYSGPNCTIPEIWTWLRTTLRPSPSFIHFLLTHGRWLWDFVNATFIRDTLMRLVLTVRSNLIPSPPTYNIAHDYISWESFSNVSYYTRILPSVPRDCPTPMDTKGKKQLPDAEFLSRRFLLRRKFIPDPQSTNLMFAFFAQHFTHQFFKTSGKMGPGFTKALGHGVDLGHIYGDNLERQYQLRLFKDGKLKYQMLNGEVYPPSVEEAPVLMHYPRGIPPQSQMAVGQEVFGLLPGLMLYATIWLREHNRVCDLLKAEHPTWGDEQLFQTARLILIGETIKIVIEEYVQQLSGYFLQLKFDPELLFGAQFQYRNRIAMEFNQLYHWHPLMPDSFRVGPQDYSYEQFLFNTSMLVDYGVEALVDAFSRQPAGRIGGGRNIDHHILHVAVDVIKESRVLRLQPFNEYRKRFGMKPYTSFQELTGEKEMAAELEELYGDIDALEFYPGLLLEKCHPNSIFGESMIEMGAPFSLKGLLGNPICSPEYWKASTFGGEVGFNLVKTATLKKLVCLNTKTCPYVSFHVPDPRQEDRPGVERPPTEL
Method: (§1) The incubation of the respective complexes with the isoenzymes was exactly 10 min. The values of COX inhibition were calculated as the mean of duplicates and shown as the mean ± SD of ≥2 independent experiments.

COX-2 [5] = target: T2, COX-2 (Homo sapiens, UniProt P35354); assay: COX Inhibitor Screening Assay (EIA) on isolated COX-2 isoenzyme; assay type: biochemical; conditions: incubation 10 min
T2 construct: purchased Cayman Chemicals
T2 sequence (P35354 18-604): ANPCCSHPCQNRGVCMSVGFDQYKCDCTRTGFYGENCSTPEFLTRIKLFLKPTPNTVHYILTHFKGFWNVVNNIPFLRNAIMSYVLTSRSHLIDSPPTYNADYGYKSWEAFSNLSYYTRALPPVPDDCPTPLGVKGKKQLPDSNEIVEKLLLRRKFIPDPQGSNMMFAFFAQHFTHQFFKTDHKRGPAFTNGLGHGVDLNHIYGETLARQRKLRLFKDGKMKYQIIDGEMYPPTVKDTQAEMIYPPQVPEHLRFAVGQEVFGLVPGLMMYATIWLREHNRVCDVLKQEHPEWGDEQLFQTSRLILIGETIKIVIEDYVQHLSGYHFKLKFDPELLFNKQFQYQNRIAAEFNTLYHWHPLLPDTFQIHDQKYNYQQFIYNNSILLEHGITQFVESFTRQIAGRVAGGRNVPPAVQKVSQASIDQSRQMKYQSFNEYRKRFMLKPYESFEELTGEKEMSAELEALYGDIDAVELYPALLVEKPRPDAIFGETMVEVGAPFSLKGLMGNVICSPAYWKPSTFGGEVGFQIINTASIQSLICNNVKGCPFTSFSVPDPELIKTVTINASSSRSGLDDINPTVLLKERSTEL
Method: as §1

MCF-7 cells [6] = assay: Crystal violet assay, antiproliferative effects in MCF-7 cells; assay type: cell-based; conditions: MCF-7 (COX-negative), 72 h
Method: (§2) In order to investigate the cytotoxic effects in MCF-7 and HT-29 cells, an already published crystal violet assay was used. The cells (HT-29: 3 × 10^3 cells per well in 100 µL of medium; MCF-7: 2 × 10^3 cells per well in 100 µL of medium) were seeded in their exponential growth phase in completed DMEM into 96-well microtiter plates in quadruples. […] Cells were then fixed with a solution of 1% (v/v) glutaric dialdehyde in PBS. In order to determine the cell biomass, the chromatin of the attached cells was stained with crystal violet, and the bound dye was extracted with EtOH (70%). The absorbance was measured at 590 nm. Mean values ± SD of ≥2 independent experiments were calculated, and the activity of the complexes was expressed as the cell mass of the vehicle-treated control, which was set to 100%.
(§3) The compounds were investigated regarding their cytotoxicity (in vitro) employing an already published crystal violet assay. It is based on the quantification of the cell biomass of living cells by staining the chromatin. In order to evaluate the possible influence of COX inhibition on cell growth, Zeise’s salt derivatives were investigated comparatively in HT-29 and MCF-7 cell lines.

HT-29 cells [7] = assay: Crystal violet assay, antiproliferative effects in HT-29 cells; assay type: cell-based; conditions: HT-29 (COX-1/2-positive), 72 h
Method: as §2, §3

[8] = tested on: PGE2 synthesis in HT-29 cells; assay: Inhibition of the PGE2 synthesis in HT-29 cells (PGE2 EIA); assay type: cell-based; conditions: 24 h at 37 °C, then 50 µM arachidonic acid 1 h; for Inhibition of PGE2 synthesis: 10 µM
Method: Exponentially growing HT-29 cells were seeded into 24-well plates at a concentration of 5 × 10^4 cells in 500 µL of cell culture medium per well. […] In the next step, the substrate arachidonic acid (Sigma Aldrich, St. Louis, MO, USA) at a concentration of 50 µM was added. After 1 h, the COX-catalyzed PGE2 production was stopped by removing the supernatant from the cells, which was analyzed by EIA (Prostaglandin E2 Kit—Monoclonal, Cayman Chemicals, Ann Arbor, MI, USA) according to the manufacturer’s protocol.
HT-29 cells express both isoenzymes at high levels, allowing COX-1/2 interaction to be studied using an antibody-based PGE2 assay, which quantifies the PGE2 released by the cells into the cell culture medium. All Zeise’s salt derivatives were tested at a concentration of 10 µM (Figure 4).

COX-1 [9] = target: T1, COX-1; set-up: method as in PMID 29492489, PMID 31617517; conditions: isolated isoenzymes; cited from earlier work
COX-2 [10] = target: T2, COX-2; set-up: method as in PMID 29492489, PMID 31617517; conditions: isolated isoenzymes; cited from earlier work
[11] = set-up: method as in doi:10.1002/zaac.19603050315; conditions: forms elemental platinum in an internal redox reaction; cited from earlier work

Compound: CC(=O)Oc1ccccc1C(=O)OCC[CH]1[CH2][Pt-]1([Cl])([Cl])[Cl].[K+] (stereo not shown) [ASA-But-PtCl3]
- Growth inhibition in HT-29 cells (HT-29 cells [1]): low growth inhibitory potential
- Half-life (τ½) [2]: 4180 min
- Growth inhibition in MCF-7 cells (MCF-7 cells [3]): nearly inactive

Compound: CC(=O)Oc1c(Cl)cccc1C(=O)OC[CH]1[CH2][Pt-]1([Cl])([Cl])[Cl].[K+] (stereo not shown) [3-Cl-ASA-Prop-PtCl3, Potassium trichlorido[η^2-(prop-2-en-1-yl)-2-acetoxy-3-chlorobenzoate]platinate(II)]
- Inhibition of COX-1 (COX-1 [4]; 1 µM): 51.7%
- Inhibition of COX-2 (COX-2 [5]; 1 µM): 58.8%
- IC50 (MCF-7 cells [6]): 56.3 ± 5.8 µM
- IC50 (HT-29 cells [7]): 89.7 ± 25.7 µM
- Half-life (τ½) [2]: 31.4 ± 1.7 min

Compound: CC(=O)Oc1cc(C)ccc1C(=O)OC[CH]1[CH2][Pt-]1([Cl])([Cl])[Cl].[K+] (stereo not shown) [4-CH3-ASA-Prop-PtCl3, Potassium trichlorido[η^2-(prop-2-en-1-yl)-2-acetoxy-4-methylbenzoate]platinate(II)]
- IC50 (MCF-7 cells [6]): 62.9 ± 1.6 µM
- Inhibition of PGE2 synthesis [8]: 88.4%
- IC50 (HT-29 cells [7]): 24.2 ± 2.4 µM
- Half-life (τ½) [2]: 40.4 ± 1.1 min

Compound: CC(=O)Oc1ccccc1C(=O)O [ASA, Acetylsalicylic acid]
- Concentration causing significant effects on COX-1 (COX-1 [9]): higher than 100 µM
- Concentration causing significant effects on COX-2 (COX-2 [10]): higher than 100 µM
- inhibition at 10 µM ([8]; Homo sapiens): 17.9%

Compound: C=C.O.[Cl][Pt-]([Cl])[Cl].[K+] [Zeise’s salt]
- Inhibition of COX-1 (COX-1 [4]; 1 µM): 37.3%
- Inhibition of COX-1 (COX-1 [4]; 10 µM): 94.4%
- Inhibition of COX-2 (COX-2 [5]; 1 µM): 1.5%
- Inhibition of COX-2 (COX-2 [5]; 10 µM): 8.3%
- Inhibition of PGE2 synthesis [8]: 24.5%
- Stability in aqueous environment [11]: not stable

Compound: CC(=O)Oc1ccc(C)cc1C(=O)OCC[CH]1[CH2][Pt-]1([Cl])([Cl])[Cl].[K+] (stereo not shown) [5-CH3-ASA-But-PtCl3, Potassium trichlorido[η^2-(but-3-en-1-yl)-2-acetoxy-5-methylbenzoate]platinate(II)]
- Inhibition of COX-1 (COX-1 [4]; 1 µM): 60.4%
- Inhibition of COX-2 (COX-2 [5]; 1 µM): 45.0%
- IC50 (MCF-7 cells [6]): 32.5 ± 4.4 µM
- IC50 (HT-29 cells [7]): 16.2 ± 2.5 µM
- Half-life (τ½) [2]: 3140 ± 258 min

Compound: CC(=O)Oc1cc(Cl)ccc1C(=O)OCC[CH]1[CH2][Pt-]1([Cl])([Cl])[Cl].[K+] (stereo not shown) [4-Cl-ASA-But-PtCl3, Potassium trichlorido[η^2-(but-3-en-1-yl)-2-acetoxy-4-chlorobenzoate]platinate(II)]
- Inhibition of COX-1 (COX-1 [4]; 1 µM): 47.9%
- Inhibition of COX-2 (COX-2 [5]; 1 µM): 40.0%
- IC50 (MCF-7 cells [6]): 31.7 ± 8.7 µM
- IC50 (HT-29 cells [7]): 35.2 ± 9.3 µM
- Half-life (τ½) [2]: 2370 ± 144 min

Compound: CC(=O)Oc1ccccc1C(=O)OC[CH]1[CH2][Pt-]1([Cl])([Cl])[Cl].[K+] (stereo not shown) [ASA-Prop-PtCl3]
- Growth inhibition in HT-29 cells (HT-29 cells [1]): low growth inhibitory potential
- Half-life (τ½) [2]: 35.7 min
- Growth inhibition in MCF-7 cells (MCF-7 cells [3]): nearly inactive

Compound: CC(=O)Oc1ccc(Cl)cc1C(=O)OC[CH]1[CH2][Pt-]1([Cl])([Cl])[Cl].[K+] (stereo not shown) [5-Cl-ASA-Prop-PtCl3, Potassium trichlorido[η^2-(prop-2-en-1-yl)-2-acetoxy-5-chlorobenzoate]platinate(II)]
- COX-1 selectivity (COX-1 [4]; from inhibition at 1 µM, COX-1 over COX-2): 1.7 fold
- IC50 (MCF-7 cells [6]): 52.8 ± 9.2 µM
- Inhibition of PGE2 synthesis [8]: 84.0%
- IC50 (HT-29 cells [7]): 53.4 ± 0.7 µM
- Half-life (τ½) [2]: 35.2 ± 0.9 min

Compound: CC(=O)Oc1ccc(C)cc1C(=O)OC[CH]1[CH2][Pt-]1([Cl])([Cl])[Cl].[K+] (stereo not shown) [5-CH3-ASA-Prop-PtCl3, Potassium trichlorido[η^2-(prop-2-en-1-yl)-2-acetoxy-5-methylbenzoate]platinate(II)]
- IC50 (MCF-7 cells [6]): 70.2 ± 2.8 µM
- Inhibition of PGE2 synthesis [8]: 82.4%
- IC50 (HT-29 cells [7]): 21.9 ± 4.6 µM
- Half-life (τ½) [2]: 36.7 ± 1.1 min
